Measured values: paper PMC6428421 (Nature cell biology, 2019)

Molecular target: IRAK1 (Homo sapiens, UniProt P51617)
Experiment: KINOMEScan competition kinase-binding assay

Sequence of IRAK1 (P51617 whole entry): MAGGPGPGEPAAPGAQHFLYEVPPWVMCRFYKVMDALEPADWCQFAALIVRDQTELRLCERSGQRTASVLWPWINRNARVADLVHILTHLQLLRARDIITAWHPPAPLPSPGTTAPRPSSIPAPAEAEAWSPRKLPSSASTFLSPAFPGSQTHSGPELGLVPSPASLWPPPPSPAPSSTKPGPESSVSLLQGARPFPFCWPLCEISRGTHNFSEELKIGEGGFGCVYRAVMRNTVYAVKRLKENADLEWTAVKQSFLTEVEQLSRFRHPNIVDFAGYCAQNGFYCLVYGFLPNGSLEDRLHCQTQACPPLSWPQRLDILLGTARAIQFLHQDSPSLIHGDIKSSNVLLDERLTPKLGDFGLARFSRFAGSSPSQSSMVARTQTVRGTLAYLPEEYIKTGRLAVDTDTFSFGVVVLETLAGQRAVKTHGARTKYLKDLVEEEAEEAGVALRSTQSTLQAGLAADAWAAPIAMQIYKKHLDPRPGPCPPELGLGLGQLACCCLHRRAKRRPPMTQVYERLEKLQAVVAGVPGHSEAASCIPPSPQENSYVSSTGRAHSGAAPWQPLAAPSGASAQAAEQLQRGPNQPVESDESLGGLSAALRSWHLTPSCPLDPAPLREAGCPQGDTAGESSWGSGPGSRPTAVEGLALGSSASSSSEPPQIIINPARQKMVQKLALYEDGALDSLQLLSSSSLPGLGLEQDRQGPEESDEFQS

With COC(=O)Nc1nc2ccc([S+]([O-])c3ccccc3)cc2[nH]1 (stereo not shown) [OXF, oxfendazole] the Kd was 5.8 µM.
